Assay results published in ChEMBL document CHEMBL1141133, “Synthesis of a resveratrol analogue with high ceramide-mediated proapoptotic activity on human breast cancer cells” (J Med Chem, 2005).
pIC50: −log10 of the molar value.

System: MDA-MB-231
Experiment: Inhibitory concentration required for antiproliferative activity against human MDA-MB-231 cells
Type: functional, cell-based

| Structure (SMILES) | pIC50 |
| --- | --- |
| COc1cc(OC)cc(-c2ccc3cc(O)ccc3c2)c1 | 5.14 |
| COc1ccc(/C=C/c2cc(OC)cc(OC)c2)cc1 [TRISMETHOXYRESVERATROL] | 5.92 |
| COc1ccc(/C=C/c2cc(O)cc(O)c2)cc1 [RESVERATROL 4'-METHYL ETHER] | < 4.30 |
| COc1cc(OC)cc(-c2ccc3cc(OC)ccc3c2)c1 | 4.35 |
| COc1cc(/C=C/c2ccc(O)cc2)cc(OC)c1 [PTEROSTILBENE] | 5.00 |
| Oc1cc(O)cc(-c2ccc3cc(O)ccc3c2)c1 | 4.90 |
| COc1ccc2cc(-c3cc(O)cc(O)c3)ccc2c1 | 4.55 |
| Oc1ccc(/C=C/c2cc(O)cc(O)c2)cc1 [RESVERATROL] | 4.69 |
